Assay results as given in patent US9763904B2, “Position-specific asymmetric deuterium enriched catecholamine derivatives and medicaments comprising said compounds” (Teva Pharmaceuticals International GmbH, priority 2013, dated 2017).
“Also recorded” adds a separate entry of the source. Where two headings read alike, the source gives them in different places. Values belong to the compound of their own block, whether it stands above or below them.

Experiments:
[1] = tested on: 6-hydroxydopamine (6-OHDA) rodent model of Parkinson's disease; assay: Dyskinesia: scoring of abnormal involuntary movements (limb, axial, orolingual) after repeated treatment in 6-OHDA lesioned rats; format: in vivo, Sprague-Dawley rats
Text: The effects on motor performance and the development of dyskinesia following administration of deuterated L-DOPA derivatives with different deuterium enrichment at specific position of the side chain have been compared among each other and to L-DOPA in the 6-hydroxydopamine (6-OHDA) rodent model of Parkinson's disease.
Female Sprague-Dawley rats weighing approximately 225 g were housed on a 12-hour light/dark cycle and kept on standard laboratory diet and water ad libitum. The rats were lesioned by unilateral injection of the neurotoxin 6-OHDA. The lesion was validated by measuring the rotational activity after i.p. injection of 2.5 mg/kg D-amphetamine.
Dyskinesia was evaluated after repeated treatment by scoring the animals for abnormal involuntary movements. The rats were scored, by an observer blinded to the experimental design for limb, axial and orolingual involuntary movements.
The equipotent dose as percent of L-DOPA dose that caused the same effect on motor performance and dyskinesia observed following repeated administration of these doses is shown in Table 2.

[2] = tested on: 6-hydroxydopamine (6-OHDA) rodent model of Parkinson's disease; assay: Drug induced contralateral rotations (anti-Parkinson effect, motor performance) in unilaterally 6-OHDA lesioned rats; format: in vivo, Sprague-Dawley rats; conditions: 6-OHDA rats; for Motor Effect [% of L-DOPA effect]: at equipotent dose, contralateral rotations; for Equipotent Dose [% of L-DOPA dose]: dose causing the same effect on motor performance as L-DOPA; for effect on motor performance (in words): comparison between test items
striatal dopamine = conditions: compared to L-DOPA, prior art, cited from earlier work
Parkinson models = conditions: cited from earlier work
[3] = female, Sprague-Dawley, rat, in vivo
[4] = 6-OHDA rats, repeated administration, equipotent dose
[5] = repeated administration of equipotent doses, 6-OHDA rats

Dyskinesia [% of dyskinesia caused by L-DOPA] [1, 3]: 100% of dyskinesia caused by L-DOPA
Compound: N[C@@H](Cc1ccc(O)c(O)c1)C(=O)O [Test Item A, L-2-amino-3-(3,4-dihydroxyphenyl) propionic acid]
Motor Effect [% of L-DOPA effect] [2]: 100% of L-DOPA effect | Equipotent Dose [% of L-DOPA dose] [2]: 100% of L-DOPA dose

Compound: [2H][C@@H](c1ccc(O)c(O)c1)[C@]([2H])(N)C(=O)O [Test Item B, S/S-2-amino-2,3-dideutero-3-(3,4-dihydroxyphenyl) propionic acid]
dyskinesia at equipotent dose (in words) [1, 4]: not reduced in comparison to L-DOPA | Dyskinesia [% of dyskinesia caused by L-DOPA] [1, 5]: 100% of dyskinesia caused by L-DOPA | striatal dopamine levels / output (in words) (striatal dopamine; listed as α, β-D2-L-DOPA): increase and prolong the output of striatal dopamine significantly more than L-DOPA; also recorded: highest striatal dopamine concentrations | effect on motor performance (in words) [2]: significantly greater compared to α, β, β-D3-L-DOPA [C] and L-DOPA [A] | Motor Effect [% of L-DOPA effect] [2]: 100% of L-DOPA effect | Equipotent Dose [% of L-DOPA dose] [2]: 30% of L-DOPA dose

Dyskinesia [% of dyskinesia caused by L-DOPA] [1, 3]: 50% of dyskinesia caused by L-DOPA
Compound: [2H]C([2H])(c1ccc(O)c(O)c1)[C@]([2H])(N)C(=O)O [Test Item C, L-2-amino-2,3,3-trideutero-3-(3,4-dihydroxyphenyl) propionic acid]
dyskinesia at equipotent dose (in words) ([1]; rat, in vivo): significantly less dyskinesia than L-DOPA | striatal dopamine levels / output (in words) (striatal dopamine; listed as α, β,β-D3-L-DOPA): increase and prolong the output of striatal dopamine significantly more than L-DOPA | striatal dopamine levels / output (in words) (striatal dopamine; listed as α,β,β-D3-L-DOPA): higher longer-lasting striatal dopamine levels than L-DOPA | equi-effective dose compared to L-DOPA (Parkinson models; Parkinson models, literature): about 60% | motor activity (in words) (Parkinson models; compared to L-DOPA, several Parkinson models): improved motor activity compared to L-DOPA | Motor Effect [% of L-DOPA effect] [2]: 100% of L-DOPA effect | Equipotent Dose [% of L-DOPA dose] [2]: 60% of L-DOPA dose

Compound: L-2-amino-2,3,3*-trideutero-3-(3,4-dihydroxyphenyl) propionic acid [Test Item D]
dyskinesia at equipotent dose (in words) [1, 4]: reduction of dyskinesia as the triple-deuterated α, β, β-D3-L-DOPA [C] | Dyskinesia [% of dyskinesia caused by L-DOPA] [1, 5]: 50% of dyskinesia caused by L-DOPA | effect on motor performance (in words) [2]: motor effect equivalent to the di-deuterated α, β-D2-L-DOPA [B] | Motor Effect [% of L-DOPA effect] [2]: 100% of L-DOPA effect | Equipotent Dose [% of L-DOPA dose] [2]: 35% of L-DOPA dose
